Laboratory results as given in PubChem BioAssay (NCI).
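48-hour exposure; five concentrations; linearly interpolated endpoints. TGI marks complete inhibition of growth.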

Columns and labels:
Assay in all cases: inhibition of tumour cell growth, NCI panel, 48 h
NCI-H23 lung = tested on: NCI-H23 lung
SF-295 CNS = tested on: SF-295 CNS
HCT-15 colon = tested on: HCT-15 colon
IGROV1 ovarian = tested on: IGROV1 ovarian
UO-31 renal = tested on: UO-31 renal
SK-MEL-2 melanoma = tested on: SK-MEL-2 melanoma
UACC-257 melanoma = tested on: UACC-257 melanoma
XF 498 CNS = tested on: XF 498 CNS
KM20L2 colon = tested on: KM20L2 colon
SW-620 colon = tested on: SW-620 colon
SK-OV-3 ovarian = tested on: SK-OV-3 ovarian
LOX IMVI melanoma = tested on: LOX IMVI melanoma
HL-60(TB) leukemia = tested on: HL-60(TB) leukemia
COLO 205 colon = tested on: COLO 205 colon
TK-10 renal = tested on: TK-10 renal
KM12 colon = tested on: KM12 colon
NCI-H226 lung = tested on: NCI-H226 lung
CCRF-CEM leukemia = tested on: CCRF-CEM leukemia
OVCAR-3 ovarian = tested on: OVCAR-3 ovarian
HCT-116 colon = tested on: HCT-116 colon
SF-539 CNS = tested on: SF-539 CNS
OVCAR-8 ovarian = tested on: OVCAR-8 ovarian
CAKI-1 renal = tested on: CAKI-1 renal
NCI-H522 lung = tested on: NCI-H522 lung
HCC-2998 colon = tested on: HCC-2998 colon
ACHN renal = tested on: ACHN renal
MALME-3M melanoma = tested on: MALME-3M melanoma
HOP-18 NSCLC = tested on: HOP-18 NSCLC
K-562 leukemia = tested on: K-562 leukemia
U251 CNS = tested on: U251 CNS
A498 renal = tested on: A498 renal
MOLT-4 leukemia = tested on: MOLT-4 leukemia
EKVX NSCLC = tested on: EKVX NSCLC
HT29 colon = tested on: HT29 colon
SK-MEL-28 melanoma = tested on: SK-MEL-28 melanoma
RXF 393 renal = tested on: RXF 393 renal
LXFL 529 NSCLC = tested on: LXFL 529 NSCLC
HOP-62 NSCLC = tested on: HOP-62 NSCLC
UACC-62 melanoma = tested on: UACC-62 melanoma
A549 NSCLC = tested on: A549 NSCLC
786-0 renal = tested on: 786-0 renal
SNB-78 CNS = tested on: SNB-78 CNS
SNB-75 CNS = tested on: SNB-75 CNS
OVCAR-5 ovarian = tested on: OVCAR-5 ovarian
DLD-1 colon = tested on: DLD-1 colon
NCI-H460 lung = tested on: NCI-H460 lung
SK-MEL-5 melanoma = tested on: SK-MEL-5 melanoma
SR leukemia = tested on: SR leukemia
SF-268 CNS = tested on: SF-268 CNS
M14 melanoma = tested on: M14 melanoma
SNB-19 CNS = tested on: SNB-19 CNS
DMS 273 small cell lung = tested on: DMS 273 small cell lung
OVCAR-4 ovarian = tested on: OVCAR-4 ovarian
SN12C renal = tested on: SN12C renal
DMS 114 small cell lung = tested on: DMS 114 small cell lung
M19-MEL melanoma = tested on: M19-MEL melanoma
RPMI-8226 leukemia = tested on: RPMI-8226 leukemia
HOP-92 NSCLC = tested on: HOP-92 NSCLC

Measured: TGI

COC(=O)C(C(=O)C(=O)Nc1ccc(C)cc1)c1nc2ccc([N+](=O)[O-])cc2[nH]c1=O (stereo not given)
> 100 µM: NCI-H23 lung | SF-295 CNS | HCT-15 colon | IGROV1 ovarian | UO-31 renal | SK-MEL-2 melanoma | UACC-257 melanoma | XF 498 CNS | KM20L2 colon | SW-620 colon | SK-OV-3 ovarian | LOX IMVI melanoma | HL-60(TB) leukemia | COLO 205 colon | TK-10 renal | KM12 colon | NCI-H226 lung | CCRF-CEM leukemia | OVCAR-3 ovarian | HCT-116 colon | SF-539 CNS | OVCAR-8 ovarian | CAKI-1 renal | NCI-H522 lung | HCC-2998 colon | ACHN renal | MALME-3M melanoma | HOP-18 NSCLC | K-562 leukemia | U251 CNS | A498 renal | MOLT-4 leukemia | EKVX NSCLC | HT29 colon | SK-MEL-28 melanoma | RXF 393 renal | LXFL 529 NSCLC | HOP-62 NSCLC | UACC-62 melanoma | A549 NSCLC | 786-0 renal | SNB-78 CNS | SNB-75 CNS | OVCAR-5 ovarian | DLD-1 colon | NCI-H460 lung | SK-MEL-5 melanoma | SR leukemia | SF-268 CNS | M14 melanoma | SNB-19 CNS | DMS 273 small cell lung | OVCAR-4 ovarian | SN12C renal | DMS 114 small cell lung | M19-MEL melanoma

COC1(OC)CC2C(=O)N(Cc3ccccc3)C1C(S(=O)(=O)c1ccccc1)C2C(C)S(=O)(=O)c1ccccc1 (stereo not given)
> 100 µM: NCI-H23 lung | SF-295 CNS | RPMI-8226 leukemia | HCT-15 colon | IGROV1 ovarian | SK-MEL-2 melanoma | UACC-257 melanoma | XF 498 CNS | KM20L2 colon | SW-620 colon | SK-OV-3 ovarian | HOP-92 NSCLC | LOX IMVI melanoma | HL-60(TB) leukemia | COLO 205 colon | TK-10 renal | KM12 colon | CCRF-CEM leukemia | OVCAR-3 ovarian | HCT-116 colon | SF-539 CNS | OVCAR-8 ovarian | CAKI-1 renal | NCI-H522 lung | HCC-2998 colon | ACHN renal | MALME-3M melanoma | HOP-18 NSCLC | K-562 leukemia | U251 CNS | MOLT-4 leukemia | EKVX NSCLC | HT29 colon | SK-MEL-28 melanoma | RXF 393 renal | LXFL 529 NSCLC | HOP-62 NSCLC | UACC-62 melanoma | A549 NSCLC | 786-0 renal | SNB-78 CNS | OVCAR-5 ovarian | DLD-1 colon | NCI-H460 lung | SK-MEL-5 melanoma | SR leukemia | SF-268 CNS | M14 melanoma | SNB-19 CNS | DMS 273 small cell lung | OVCAR-4 ovarian | SN12C renal | DMS 114 small cell lung | M19-MEL melanoma
